Tested on: Factor XIIIa
Assay: Factor XIIIa inhibitor assay (14C-putrescine incorporation into N,N-dimethyl-casein)
Type: biochemical, human
Method: The Factor XIIIa inhibitor activity may be determined by an assay described in Methods in Enzymology, Vol. 45, Ch 15, pages 177-191 (1976) and using Factor XIII isolated from human plasma. Briefly, the assay is carried out by adding a substrate mixture of ^14 C-putrescine and N,N-dimethyl-casein to an Factor XIII assay mixture previously prepared by adding thrombin and dithiothreitol to Factor XIII in glycerol/water and tris(hydroxymethyl)aminomethane hydrochloride and then adding calcium ions, thereafter, incubating at 37° for 20 minutes, withdrawing samples to a filter disk, precipitating the casein with trichloracetic acid and then counting to determine the extent of incorporation of inhibitor of ^14 C-putrescine in casein. The result for 3-(1-oxo-4,7-nonadienyl)-oxiranecarbonitrile was 60 percent inhibition at 3 mM.

C/C=C/C/C=C/CCC(=O)[C@H]1O[C@H]1C#N [3-(1-oxo-4,7-nonadienyl)oxirane-carbonitrile]
percent inhibition of Factor XIIIa (at 3 mM, Factor XIII isolated from human plasma, 37° for 20 minutes): 60%
inhibitory activity against Factor XIIIa (statement in words) (plasma transglutaminase enzyme): inhibitory activity against Factor XIIIa
